Laboratory results: patent US4432348A, “Enhancer of anti-tumor effect” (Yamasa Shoyu Kabushiki Kaisha, priority 1980, dated 1984)

Experiments:
EMT-6 tumor [1] = experiment: Radiosensitizing effect on EMT-6 experimental tumors in mice (enhancer i.p. after local irradiation); type: in vivo, BALB/c-strain female mice; details: for Radiosensitizing activity: summary statement; for Diameter ratio / Mean tumor diameter / Volume ratio: irradiation 1500 rad + i.p. enhancer (3'-dGuo-5'-MP 100 mg/kg; 3'-dAdo-5'-MP 75 mg/kg); for 0.5 to less than 1 of volume ratio excluding cure; Tumor regression rate: slow, share of mice / 1.0 to less than 2.0 of volume ratio excluding cure; regrowth: slow, share of mice / 2.0 or more of volume ratio excluding cure; regrowth: rapid, share of mice / Cure (tumors completely vanished), share of mice / Less than 0.5 of volume ratio excluding cure; Tumor regression rate: rapid, share of mice: 28th day after treatment, irradiation 1500 rad + enhancer (3'-dGuo-5'-MP 100 mg/kg; 3'-dAdo-5'-MP 75 mg/kg); for Mean tumor diameter at the time of irradiation: baseline before irradiation (1500 rad) and i.p. enhancer (3'-dGuo-5'-MP 100 mg/kg, n = 9; 3'-dAdo-5'-MP 75 mg/kg, n = 10)
Procedure: EMT-6 tumor cells (2×10^5) were inoculated intradermally into the right thighs of BALB/c-strain female mice (8 weeks old, 6 or more mice for each group). When the tumor size reached 6 to 7 mm in diameter after inoculation of the tumor cells, local irradiation with a 32 MeV electron beam was carried out at 1,500 rad under no anesthesia and thereafter 3'-dGuo-5'-MP and 3'-dAdo-5'-MP dissolved in physiological saline solution, was administered intraperitoneally to each mouse in the indicated doses of respective agents. After these treatments, the tumor sizes were measured in tri-dimensional diameters every day or every other day for 28 days, and compared with the control group with respect to the following items: [formula]
The results are shown in Table 1 and Table 2, in which "cure" means that the tumors completely vanished during the observation period.

[2] = tested on: potentially lethal damage repair (PLDR); experiment: Inhibition of potentially lethal damage repair (PLDR)
Text: In view of the fact that the tumor cells with radioresistance under hypoxic conditions are at a quiescent stage, I have investigated the possibility of radiosensitization by inhibiting potentially lethal damage repair (hereinafter referred to as "PLDR"), which is especially marked in quiescent cells.

adenosinedeaminase [3] = details: in bodies; cited from earlier work
[4] = background art; cited from earlier work
EMT-6 tumor [5] = experiment: Enhancement of the effect of anti-tumor agents (araC) on EMT-6 experimental tumors in mice; type: in vivo, BALB/c-strain female mice
Procedure: EMT-6 tumor cells (1×10^6) were inoculated intradermally into the right thighs of BALB/c-strain female mice (8 weeks old). On the 11th day after inoculation of the tumor cells and thereafter, 3'-dGuo-5'-MP in physiological saline solutions were administered intrapenitoneally to the mice for 8 consecutive days in the dose of 50 mg/kg. The pharmaceutical agents of the present invention were administered an hour after administration of araC. After commencement of the treatment with pharmaceutical agents, the tumor sizes were measured and compared with the control group.

[6] = Acute toxicity test, intraperitoneal; details: mouse, in vivo, ip, ICR mice, male, 8 weeks old, observed for a week
Procedure: The compounds of this invention were administered intraperitoneally to ICR mice (male, 8 weeks old, 10 mice for each group), and the mice were subjected to observation for a week.

adenosinedeaminase [7] = details: cited from earlier work
[8] = 7 days after commencement of treatment, single agent 50 mg/kg × 8
[9] = 7 days after commencement of treatment, single agent 50 mg/kg × 8 (n = 10)
[10] = 14 days after commencement of treatment, single agent 50 mg/kg × 8
[11] = 14 days after commencement of treatment, single agent 50 mg/kg × 8 (n = 10)
[12] = 21 days after commencement of treatment, single agent 50 mg/kg × 8
[13] = 21 days after commencement of treatment, single agent 50 mg/kg × 8 (n = 10)
[14] = immediately before commencement of treatment, single agent 50 mg/kg × 8 (n = 10)

SMILES	Radiosensitizing activity (EMT-6 tumor [1])	Toxicity / side effects [4]	Diameter ratio (EMT-6 tumor [1]; 2 weeks after treatment)	Mean tumor diameter (EMT-6 tumor [1]; 2 weeks after treatment)	Volume ratio (EMT-6 tumor [1]; 2 weeks after treatment)	Diameter ratio (EMT-6 tumor [1]; 3 weeks after treatment)	Mean tumor diameter (EMT-6 tumor [1]; 3 weeks after treatment)	Volume ratio (EMT-6 tumor [1]; 3 weeks after treatment)	0.5 to less than 1 of volume ratio excluding cure; Tumor regression rate: slow, share of mice (EMT-6 tumor [1])	1.0 to less than 2.0 of volume ratio excluding cure; regrowth: slow, share of mice (EMT-6 tumor [1])	2.0 or more of volume ratio excluding cure; regrowth: rapid, share of mice (EMT-6 tumor [1])	Cure (tumors completely vanished), share of mice (EMT-6 tumor [1])	Less than 0.5 of volume ratio excluding cure; Tumor regression rate: rapid, share of mice (EMT-6 tumor [1])	Mean tumor diameter at the time of irradiation (EMT-6 tumor [1])	Mean tumor diameter ratio (EMT-6 tumor [5]; [8])	Mean tumor diameter (EMT-6 tumor [5]; [9])	Mean tumor diameter ratio (EMT-6 tumor [5]; [10])	Mean tumor diameter (EMT-6 tumor [5]; [11])	Mean tumor diameter ratio (EMT-6 tumor [5]; [12])	Mean tumor diameter (EMT-6 tumor [5]; [13])	further results
Nc1ncnc2c1ncn2[C@@H]1O[C@H](CO)C[C@H]1O [3'-dAdo, 3'-deoxyadenosine]	excellent radiosensitizing activities	various side effects	–	–	–	–	–	–	–	–	–	–	–	–	–	–	–	–	–	–	PLDR-inhibiting ability [2]: confirmed to have a PLDR-inhibiting ability; PLDR-inhibiting ability in combination with 2'-deoxycoformycin ([2]; in combination with 2'-deoxycoformycin): can be strengthened and prolonged; Inactivation by adenosinedeaminase (adenosinedeaminase [3]): readily inactivated by adenosinedeaminase
COCC(O)Cn1ccnc1[N+](=O)[O-] (stereo not drawn) [misonidazole]	–	neurotoxicity	–	–	–	–	–	–	–	–	–	–	–	–	–	–	–	–	–	–	–
Nc1nc2c(ncn2[C@@H]2O[C@H](COP(=O)(O)O)C[C@H]2O)c(=O)[nH]1 [3'-dGuo-5'-MP, 3'-deoxyguanosine-5'-monophosphate]	excellent radiosensitizing activities	–	0.93 ± 0.13	6.17 ± 0.90 mm	1.19 ± 0.32	0.90 ± 0.18	5.95 ± 1.22 mm	1.45 ± 0.46	22%	56%	0%	22%	0%	6.46 ± 0.23 mm	1.30 ± 0.13	9.83 ± 1.07 mm	1.61 ± 0.27	12.10 ± 2.00 mm	2.05 ± 0.32	15.40 ± 2.01 mm	Mean tumor diameter ratio (EMT-6 tumor [5]; 7 days after commencement, combination araC 50 mg/kg × 8 + 3'-dGuo-5'-MP 50 mg/kg × 8): 1.13 ± 0.15; Mean tumor diameter (EMT-6 tumor [5]; 7 days after commencement, combination araC 50 mg/kg × 8 + 3'-dGuo-5'-MP 50 mg/kg × 8 (1 h after araC)): 8.28 ± 1.11 mm; Mean tumor diameter ratio (EMT-6 tumor [5]; 14 days after commencement, combination araC 50 mg/kg × 8 + 3'-dGuo-5'-MP 50 mg/kg × 8): 1.26 ± 0.51; Mean tumor diameter (EMT-6 tumor [5]; 14 days after commencement, combination araC 50 mg/kg × 8 + 3'-dGuo-5'-MP 50 mg/kg × 8 (1 h after araC)): 9.12 ± 3.67 mm; Mean tumor diameter ratio (EMT-6 tumor [5]; 21 days after commencement, combination araC 50 mg/kg × 8 + 3'-dGuo-5'-MP 50 mg/kg × 8): 1.67 ± 0.68; Mean tumor diameter (EMT-6 tumor [5]; 21 days after commencement, combination araC 50 mg/kg × 8 + 3'-dGuo-5'-MP 50 mg/kg × 8 (1 h after araC)): 12.07 ± 4.98 mm; Mean tumor diameter (EMT-6 tumor [5]; immediately before commencement of treatment, combination araC 50 mg/kg × 8 + 3'-dGuo-5'-MP 50 mg/kg × 8 (n = 9)): 7.34 ± 0.62 mm; Mean tumor diameter (EMT-6 tumor [5]; [14]): 7.57 ± 0.64 mm; LD50 at 168 h [6]: > 1000 mg/kg
Nc1ncnc2c1ncn2[C@@H]1O[C@H](COP(=O)(O)O)C[C@H]1O [3'-dAdo-5'-MP, 3'-deoxyadenosine-5'-monophosphate]	excellent radiosensitizing activities	–	0.66 ± 0.14	4.75 ± 1.06 mm	0.63 ± 0.18	0.49 ± 0.17	3.65 ± 1.24 mm	0.58 ± 0.27	0%	20%	10%	50%	20%	7.07 ± 0.23 mm	–	–	–	–	–	–	LD50 at 168 h [6]: 500 mg/kg
OC[C@H]1O[C@@H](n2cnc3c2NC=NC[C@H]3O)C[C@@H]1O [2'-deoxycoformycin]	–	may cause damage to the immune systems	–	–	–	–	–	–	–	–	–	–	–	–	–	–	–	–	–	–	Adenosinedeaminase inhibition (adenosinedeaminase [7]): inhibitor against adenosinedeaminase
Nc1ccn([C@@H]2O[C@H](CO)[C@@H](O)[C@@H]2O)c(=O)n1 [araC, 1-β-D-arabinofuranosylcytosine, reference compound]	–	–	–	–	–	–	–	–	–	–	–	–	–	–	1.29 ± 0.13	9.63 ± 0.68 mm	1.60 ± 0.20	11.91 ± 1.21 mm	2.08 ± 0.20	15.49 ± 1.26 mm	Mean tumor diameter (EMT-6 tumor [5]; [14]): 7.49 ± 0.63 mm
